# Measurements taken from PMC11062899, “De novo development of small cyclic peptides that are orally bioavailable” (Nature Chemical Biology, 2023).
# Several values for one entry are separate records, joined by “and”; a condition that tells them apart may be missing. Equal values may be shown once. Read-outs that look alike come from different tables or passages of the source.
# How the values were obtained:
# [1] = Passive artificial membrane permeability (PAMPA)
# porcine pepsin = target: T1, porcine pepsin (Sus scrofa, UniProt P00791); assay: Peptide stability in simulated gastric fluid (SGF); assay type: in vitro ADME
# T1 construct: 0.32 g of porcine pepsin (Sigma-Aldrich, P7125) was dissolved under gentle agitation; purchased Sigma-Aldrich P7125
# T1 sequence (P00791 60-385): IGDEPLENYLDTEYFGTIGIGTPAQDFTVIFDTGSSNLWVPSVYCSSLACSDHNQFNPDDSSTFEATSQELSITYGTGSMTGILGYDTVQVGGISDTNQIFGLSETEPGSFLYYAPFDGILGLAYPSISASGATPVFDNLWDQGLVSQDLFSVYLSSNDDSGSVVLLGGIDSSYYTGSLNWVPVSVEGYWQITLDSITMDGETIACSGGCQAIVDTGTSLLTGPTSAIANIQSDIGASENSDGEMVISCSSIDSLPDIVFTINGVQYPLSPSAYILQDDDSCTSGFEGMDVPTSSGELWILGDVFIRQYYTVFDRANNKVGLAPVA
# Procedure, shortened: (§1)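 Peptide from a 1 mM DMSO stock was added to fluid pre-warmed at 37 °C. SGF was pH 1.2 NaCl with porcine pepsin (0.32 g per 100 ml), and SIF was pH 6.8 potassium phosphate with porcine pancreatin (1 g per 100 ml). Supernatant peptide was quantified by LC–MS, with residual expressed as T1/T0.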
# [2] = Peptide stability in simulated intestinal fluid (SIF); assay type: in vitro ADME, porcine; details: simulated gi fluid; 8 h, 37 °C, pH 6.8; read-out: Proteolytic stability: SIF (8 h) % remaining
# Procedure, shortened: as §1
# porcine pancreatin = assay: as above; assay type: in vitro ADME; details: after 8 h vs 0 h (TIC)
# Procedure, shortened: as §1
# human α-thrombin = human α-thrombin (Homo sapiens, UniProt P00734); assay: Protease inhibition, Ki for human α-thrombin (fluorogenic substrate Z-Gly-Gly-Arg-AMC); assay type: biochemical; details: human alpha thrombin; for Slope normalized to DMSO (proteolytic substrate cleavage over time): replicates R1-R3
# Procedure, shortened: (§2)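 Ki values come from Cheng–Prusoff correction of IC50, itself fitted by four-parameter logistic regression of activity versus a no-peptide control. Assays used 2 nM human or 3 nM rat thrombin, 50 μM Z-Gly-Gly-Arg-AMC, 30 min kinetic fluorescence at 25 °C.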
# rat α-thrombin = target: T2, rat α-thrombin (Rattus norvegicus, UniProt P18292); assay: Protease inhibition, Ki for rat α-thrombin (fluorogenic substrate Z-Gly-Gly-Arg-AMC); assay type: biochemical; details: rat alpha thrombin; for Slope normalized to DMSO (proteolytic substrate cleavage over time): replicates R1-R3
# T2 construct: rat α-thrombin (Molecular Innovations) were used at final concentrations of 2 nM and 3 nM; purchased Molecular Innovations
# Procedure, shortened: as §2
structure (smiles),measurement,setting,value
O=C1C[C@H]2CCCN2C(=O)[C@H](Cc2ccccc2)NC(=O)[C@@H](NC(=O)c2ccc(Cl)s2)CCCSC/C=C/CSCCN1 [compound 36],PAMPA permeability: % permeability,"[1]; 50 μM, 12–18 h, acceptor concentration relative to equilibrium",26 ± 9%
same,Papp at 50 μM,"[1]; PAMPA, pH 7.4",2.88 ×10⁻⁶ cm/s
same,Permeability% Average,"[1]; top well sample vs theoretical equilibrium sample (TIC), average of R1-R3",26.1%
same,Permeability%,"[1]; top well sample vs theoretical equilibrium sample (TIC), single replicates R1-R3",30.77% and 15.94% and 31.49%
same,"SGF stability, Residual peptide Average","porcine pepsin; after 8 h vs 0 h (TIC), average of R1-R3",87.04
same,"SGF stability, Residual peptide","porcine pepsin; after 8 h vs 0 h (TIC), single replicates R1-R3",86.50 and 93.65 and 80.97
same,remaining at 8 h,"porcine pepsin; simulated gi fluid, 8 h, 37 °C, pH 1.2, read-out: Proteolytic stability: SGF (8 h) % remaining",87 ± 6%
same,remaining at 8 h,[2],42 ± 5%
same,"SIF stability, Residual peptide Average",porcine pancreatin; average of R1-R3,42.16
same,"SIF stability, Residual peptide",porcine pancreatin; single replicates R1-R3,44.45 and 36.26 and 45.77
same,Ki,"human α-thrombin; average of R1-R3, read-out: Ki Average, human alpha thrombin inhibition",286 nM
same,Slope normalized to DMSO (proteolytic substrate cleavage over time),human α-thrombin; peptide 1.02E-03 uM,96.6 and 96.1 and 97.6
same,Slope normalized to DMSO (proteolytic substrate cleavage over time),human α-thrombin; peptide 1.04E+00 uM,45.5 and 28.3 and 38.4
same,Slope normalized to DMSO (proteolytic substrate cleavage over time),human α-thrombin; peptide 1.27E-04 uM,99.5 and 101.3 and 100.1
same,Slope normalized to DMSO (proteolytic substrate cleavage over time),human α-thrombin; peptide 1.30E-01 uM,62.0 and 52.8 and 61.8
same,Slope normalized to DMSO (proteolytic substrate cleavage over time),human α-thrombin; peptide 1.59E-05 uM,98.6 and 105.1 and 101.6
same,Slope normalized to DMSO (proteolytic substrate cleavage over time),human α-thrombin; peptide 1.63E-02 uM,86.9 and 79.7 and 80.1
same,Slope normalized to DMSO (proteolytic substrate cleavage over time),human α-thrombin; peptide 1.67E+01 uM,5.9 and 8.4 and 12.3
same,Slope normalized to DMSO (proteolytic substrate cleavage over time),human α-thrombin; peptide 2.03E-03 uM,95.9 and 89.0 and 96.4
same,Slope normalized to DMSO (proteolytic substrate cleavage over time),human α-thrombin; peptide 2.08E+00 uM,22.1 and 26.4 and 30.9
same,Slope normalized to DMSO (proteolytic substrate cleavage over time),human α-thrombin; peptide 2.54E-04 uM,98.5 and 99.2 and 101.9
same,Slope normalized to DMSO (proteolytic substrate cleavage over time),human α-thrombin; peptide 2.60E-01 uM,51.6 and 49.5 and 56.4
same,Slope normalized to DMSO (proteolytic substrate cleavage over time),human α-thrombin; peptide 3.18E-05 uM,101.8 and 100.2 and 98.7
same,Slope normalized to DMSO (proteolytic substrate cleavage over time),human α-thrombin; peptide 3.26E-02 uM,82.4 (2×) and 76.9
same,Slope normalized to DMSO (proteolytic substrate cleavage over time),human α-thrombin; peptide 3.33E+01 uM,6.3 and 6.8 and 11.7
same,Slope normalized to DMSO (proteolytic substrate cleavage over time),human α-thrombin; peptide 4.07E-03 uM,100.1 and 90.9 and 93.8
same,Slope normalized to DMSO (proteolytic substrate cleavage over time),human α-thrombin; peptide 4.17E+00 uM,10.9 and 18.5 and 22.2
same,Slope normalized to DMSO (proteolytic substrate cleavage over time),human α-thrombin; peptide 5.09E-04 uM,105.8 and 102.8 and 98.4
same,Slope normalized to DMSO (proteolytic substrate cleavage over time),human α-thrombin; peptide 5.21E-01 uM,63.9 and 55.1 and 63.1
same,Slope normalized to DMSO (proteolytic substrate cleavage over time),human α-thrombin; peptide 6.36E-05 uM,96.6 and 96.9 and 98.9
same,Slope normalized to DMSO (proteolytic substrate cleavage over time),human α-thrombin; peptide 6.51E-02 uM,69.9 and 61.7 and 72.5
same,Slope normalized to DMSO (proteolytic substrate cleavage over time),human α-thrombin; peptide 6.67E+01 uM,8.8 and 12.5 and 11.5
same,Slope normalized to DMSO (proteolytic substrate cleavage over time),human α-thrombin; peptide 7.95E-06 uM,102.0 and 99.6 and 99.3
same,Slope normalized to DMSO (proteolytic substrate cleavage over time),human α-thrombin; peptide 8.14E-03 uM,95.5 and 84.9 and 92.8
same,Slope normalized to DMSO (proteolytic substrate cleavage over time),human α-thrombin; peptide 8.33E+00 uM,4.1 and 13.8 and 13.6
same,IC50,"human α-thrombin; single replicates R1-R3, read-out: IC50, human alpha thrombin inhibition",453 nM and 218 nM and 444 nM
same,Ki,"human α-thrombin; single replicates R1-R3, read-out: Ki, human alpha thrombin inhibition",349 nM and 168 nM and 342 nM
same,Ki,"rat α-thrombin; average of R1-R3, read-out: Ki Average, rat alpha thrombin inhibition",27.1 nM
same,Slope normalized to DMSO (proteolytic substrate cleavage over time),rat α-thrombin; peptide 1.02E-03 uM,95.7 and 93.2 and 92.5
same,Slope normalized to DMSO (proteolytic substrate cleavage over time),rat α-thrombin; peptide 1.04E+00 uM,20.0 and 16.8 and 13.2
same,Slope normalized to DMSO (proteolytic substrate cleavage over time),rat α-thrombin; peptide 1.27E-04 uM,100.2 (2×) and 94.0
same,Slope normalized to DMSO (proteolytic substrate cleavage over time),rat α-thrombin; peptide 1.30E-01 uM,40.2 and 33.7 and 29.3
same,Slope normalized to DMSO (proteolytic substrate cleavage over time),rat α-thrombin; peptide 1.59E-05 uM,102.8 and 104.6 and 99.0
same,Slope normalized to DMSO (proteolytic substrate cleavage over time),rat α-thrombin; peptide 1.63E-02 uM,70.9 and 69.0 and 58.5
same,Slope normalized to DMSO (proteolytic substrate cleavage over time),rat α-thrombin; peptide 1.67E+01 uM,6.7 and 7.6 and -3.8
same,Slope normalized to DMSO (proteolytic substrate cleavage over time),rat α-thrombin; peptide 2.03E-03 uM,92.4 and 90.4 and 105.7
same,Slope normalized to DMSO (proteolytic substrate cleavage over time),rat α-thrombin; peptide 2.08E+00 uM,14.7 and 13.1 and 8.2
same,Slope normalized to DMSO (proteolytic substrate cleavage over time),rat α-thrombin; peptide 2.54E-04 uM,98.1 and 97.6 and 92.4
same,Slope normalized to DMSO (proteolytic substrate cleavage over time),rat α-thrombin; peptide 2.60E-01 uM,33.9 and 26.8 and 32.5
same,Slope normalized to DMSO (proteolytic substrate cleavage over time),rat α-thrombin; peptide 3.18E-05 uM,102.6 and 99.4 and 97.6
same,Slope normalized to DMSO (proteolytic substrate cleavage over time),rat α-thrombin; peptide 3.26E-02 uM,65.2 and 58.8 and 53.9
same,Slope normalized to DMSO (proteolytic substrate cleavage over time),rat α-thrombin; peptide 3.33E+01 uM,6.5 and 6.8 and 3.9
same,Slope normalized to DMSO (proteolytic substrate cleavage over time),rat α-thrombin; peptide 4.07E-03 uM,89.6 and 87.8 and 79.0
same,Slope normalized to DMSO (proteolytic substrate cleavage over time),rat α-thrombin; peptide 4.17E+00 uM,10.5 and 9.5 and 2.3
same,Slope normalized to DMSO (proteolytic substrate cleavage over time),rat α-thrombin; peptide 5.09E-04 uM,97.9 and 94.9 and 105.4
same,Slope normalized to DMSO (proteolytic substrate cleavage over time),rat α-thrombin; peptide 5.21E-01 uM,40.1 and 33.7 and 38.8
same,Slope normalized to DMSO (proteolytic substrate cleavage over time),rat α-thrombin; peptide 6.36E-05 uM,100.2 and 99.0 and 96.8
same,Slope normalized to DMSO (proteolytic substrate cleavage over time),rat α-thrombin; peptide 6.51E-02 uM,49.2 and 44.9 and 38.0
same,Slope normalized to DMSO (proteolytic substrate cleavage over time),rat α-thrombin; peptide 6.67E+01 uM,8.1 and 8.3 and 4.7
same,Slope normalized to DMSO (proteolytic substrate cleavage over time),rat α-thrombin; peptide 7.95E-06 uM,104.1 and 101.6 and 100.1
same,Slope normalized to DMSO (proteolytic substrate cleavage over time),rat α-thrombin; peptide 8.14E-03 uM,83.6 and 78.8 and 74.4
same,Slope normalized to DMSO (proteolytic substrate cleavage over time),rat α-thrombin; peptide 8.33E+00 uM,19.0 and 7.9 and 5.9
same,IC50,"rat α-thrombin; single replicates R1-R3, read-out: IC50, rat alpha thrombin inhibition",60.7 nM and 43.2 nM and 43 nM
same,Ki,"rat α-thrombin; single replicates R1-R3, read-out: Ki, rat alpha thrombin inhibition",33.6 nM (2×) and 23.9 nM (2×) and 23.8 nM (2×)
